Measurements taken from US20250032567A1, “PLANT-BASED SKIN PREPARATIONS AND USE THEREOF” (priority 2022, published 2025).

system: cannabis calli; assay: Elicitation of callus cultures on solid medium, cannabinoid content by HPLC; type: cell-based, Cannabis sativa; conditions: elicitors compared for inducing secondary metabolites

How did the “cannabinoid production (elicitor effect)” value turn out when `CCCCCC(=O)O` [hexanoic acid] was run?
Its value is “positive results”.

With `O=P(O)(O)CCCl` [ethephon] as the compound, how does the “cannabinoid production (elicitor effect)” value read?
Its value is “positive results”.

How did the “cannabinoid production (elicitor effect)” value turn out when `O=C(O)c1ccccc1O` [salicylic acid] was run?
Its value is “positive results”.

For `CC/C=C\CC1C(=O)CCC1CC(=O)OC` (stereo not shown) [methyl jasmonate], which “cannabinoid production (elicitor effect)” value is on record?
The value was “positive results”.

`N[C@@H](Cc1ccc(O)cc1)C(=O)O` [tyrosine] was tested. Which “cannabinoid production (elicitor effect)” value did it give?
Its value is “positive results”.

How did the “cannabinoid production (elicitor effect)” value turn out when `N[C@@H](Cc1ccccc1)C(=O)O` [phenylalanine] was run?
Its value is “positive results”.

For `NCCCC(=O)O` [GABA], which “cannabinoid production (elicitor effect)” value is on record?
The value was “positive results”.
